Tests used:
[1] = tested on: PKC from the central nervous system; assay: Phosphorylation of synaptosomal plasma membranes: B-50 phosphorylation; assay type: biochemical; conditions: for phosphorylation of B-50 (% of control): without addition of CaM
Method: Subcellular fractionation and phosphorylation assay were performed according to Kristjansson et al., (1982). […] After a preincubation at 30°C for 5 min, the phosphorylation reaction was started by adding the ATP. The reaction was stopped after 15 sec. All compounds to be tested were present at the start of the preincubation. […]

calmodulin = calmodulin (Homo sapiens, UniProt P0DP23); conditions: Schmidt et al. (1990); cited from earlier work
HaCaT cells [2] = assay: Keratinocyte morphology, phase contrast microscopy; assay type: cell-based, human; conditions: 10 µM, monitored during 72 hours
Method: HaCaT cells were cultured under standard conditions. 24 h after plating (2.5 x 10⁶ cells) the medium was replaced by medium containing the test compounds. During 72 hours cell morphology was frequently monitored using a phase contrast photomicroscope (Olympus IMT-2, Tokyo, Japan).

HaCaT cells [3] = assay: Proliferation of HaCaT cells (incorporation of [3H]-thymidine and [14C]-amino acids, total protein content of attached cells); assay type: cell-based; conditions: Homo sapiens, all parameters measured ([3H]-thymidine, [14C]-amino acids, total protein content), 48 h incubation with compound, read-out: IC₅₀ values, inhibition of proliferation
From the text: HaCaT cells are spontaneously immortalized aneuploid human keratinocytes prepared according to J. Cell. Biol. (1988), 106: 761-771. They can be substituted, however, by SVK₁₄ cells [Taylor-Papadimitriou et al. (1982), J. Cell Differentiat. 11: 169-180] or freshly isolated human keratinocytes [Rheinwald and Green (1975), Cell 6: 331-344].
The HaCaT cells (or the other cells) were routinely grown in Dulbecco's modified essential medium (DMEM) supplemented with 1% antibiotic-antimycotic solution, 4 mM L-glutamine and 10% fetal calf serum in culture flasks (T 175; Falcon Labware, Oxuard, CA, USA). Proliferation tests were carried out with passages 90-95 (for HaCaT-cells) and passages 3-6 (for NHEK's) in 24 well plates (Greiner, Solingen, FRG) as described below. All incubations were performed at 37°C in a humidified atmosphere with 10% CO₂. […]
Proliferation of HaCaT cells was assayed by three different parameters: incorporation of [³H]-thymidine, incorporation of [¹⁴C]-amino acids and the increase of protein content of attached cells. […] Thereafter, the filters were treated with 0.5 ml PROTOSOL®-solution (NEN, Bad Homburg, FRG) at 60°C for 1 h and radioactivity was assessed by liquid scintillation counting. […]
For determination of total protein content, cells were washed twice with methanol. […] Concentration of protein was determined spectrophotometrically using bovine serum albumin as a standard. […]

[4] = tested on: Normal human keratinocytes; assay: Cornified envelope formation (keratinocyte differentiation); assay type: cell-based; conditions: 4 h plus 48 h exposure, increasing concentrations
Method: Normal human keratinocytes were grown to confluence at low calcium concentration in the presence of 5% FCS, 1 µM isoproterenol and 10 ng EGF per ml. They were first exposed for 4 h to increasing concentrations of test compounds and subsequently reincubated for 48 h in medium containing normal calcium concentration and the same additives, test compounds and [³H]-leucine (1 µCi/ml). Thereafter, both spontaneous and ionophore-induced cornified envelope (CE) formation was determined [King et al. (1986) Exp. Cell. Res., 167: 252].

PMHL = assay: Nonspecific cytotoxicity, trypane blue exclusion test; assay type: cell-based, human
Method: Nonspecific cytotoxicity of the test compounds on PMHL was assessed by […] blue exclusion test.

[5] = tested on: TPA-induced ear edema in mice; assay: Intraperitoneal administration, TPA-induced ear edema in mice; assay type: in vivo; conditions: intraperitoneally, 30 mg/kg, 3 h after challenge
Method: Mice were injected intraperitoneally with 30, 10 or 3.3 mg/kg body weight of the test substances, sphingosine in carboxymethylcellulose (0.5%) and tiflucarbine in physiologic Saline, 10 ml/kg body weight. After 60 minutes the mire were challenged on the left ear with a 0.01 wt% solution of 12-O-tetradecanoylphorbol-13-acetate (TPA) in a 80/20 mixture of acetone/water. At 0, 3, 6 and 24 h after challenge, ear thickness was determined.

rat brain synaptosomes = assay: Noradrenaline release from permeated synaptosomes; assay type: cell-based; conditions: 100 µM to 1 µM; low (10 nM) and high (10 µM) Ca²⁺
Method: Highly purified synaptosomes were prepared according to Dunkley and Robinson (1987). The synaptosomes were diluted with 3 ml buffer A (123 mM NaCl, 5 mM KCl, 2 mM CaCl₂, […], 1.15 mM NaH₂PO₄, 5.6 mM glucose, 20 mM PIPES pH 6.8, gassed with O₂:CO₂, 95:5) and incubated for 15 min at 37°C. Then 2.5 µCi noradrenalin (NA) was added, incubation was continued for 15 min and the synaptosomes were centrifuged for 20 min at 600 x g. The resulting pellet was washed twice in buffer A without CaCl₂ and resuspended (1 mg protein/ml).
For measurement of NA release, prelabeled synaptosomes were incubated at 37°C in buffer A containing Na₂ATP and EGTA-buffered Ca²⁺ in concentrations as indicated (final volume 120 µl). The release reaction was started by adding synaptosomes (20 µg protein) to the reaction mixture and terminated after 5 min by 30 sec centrifugation at 10,000 x g. The supernatant (90 µl) was collected and counted in a Packard Model 2,000 CA liquid scintillation counter with Picofluor as a scintillation cocktail. NA release was expressed as % of total [³H]-NA incorporated. Total NA incorporation was determined by measuring [³H]-incorporation in 20 µg prelabeled washed synaptosomes.

Q: With `CCN1CCc2[nH]c3cc(F)c4scc(C)c4c3c2C1` [Tiflucarbine, 1-methyl-9-ethyl-4-fluoro-7,8,9,10-tetra:hydro-thieno-[3,2-e]-pyrido-[4,3-b]-indole lactate] as the compound, how does the B-50 phosphorylation ([1]; in the presence of exogenous CaM (3 units/assay)) read?
A: did not inhibit B-50 phosphorylation

Q: What about the “phosphorylation of B-50 (% of control)” value ([1]; concentration 1 µM) of the same compound?
A: 82 ± 14 % of control

Q: What about the “phosphorylation of B-50 (% of control)” value ([1]; concentration 10 µM) of the same compound?
A: 110 ± 15 % of control

Q: What about the “phosphorylation of B-50 (% of control)” value ([1]; concentration 100 µM) of the same compound?
A: 92 ± 9 % of control

Q: What about the “phosphorylation of B-50 (% of control)” value ([1]; concentration l mM) of the same compound?
A: 95 ± 11 % of control

Q: And the binding to calmodulin (calmodulin)?
A: bind to calmodulin

Q: And the effect on morphology (HaCaT cells [2])?
A: no effect

Q: And the IC50 (HaCaT cells [3])?
A: 10 to 17 µM

Q: And the “spontaneous CE formation” value [4]?
A: no effect

Q: What about the Trypane blue (PMHL) of the same compound?
A: 300 µM

Q: What about the “ear edema (ear thickness)” value [5] of the same compound?
A: reduced ear edema

Q: What about the noradrenaline release (rat brain synaptosomes) of the same compound?
A: did not display any significant effects

Reference: patent publication EP0499337A1, “Use of tetra:hydro-thieno-pyrido-indole derivatives for the treatment of skin disorders” (YAMANOUCHI EUROPE B.V., priority 1991, dated 1992)
